Measured values as given in paper PMC8698456, “Agrobacterium fabrum atu0526-Encoding Protein Is the Only Chemoreceptor That Regulates Chemoattraction toward the Broad Antibacterial Agent Formic Acid” (Biology, 2021).

What was measured:
Atu0526 [1] = target: T1, Atu0526 (Agrobacterium fabrum, UniProt Q7D199); test: isothermal titration calorimetry; thermo shift assay (Tm […] to […] °C); format: binding
T1 construct: gene mclA; periplasmic domain (LBD, from 36th residue to 197th residue), His-tagged, pET30a
T1 sequence (Q7D199 entry or part of it): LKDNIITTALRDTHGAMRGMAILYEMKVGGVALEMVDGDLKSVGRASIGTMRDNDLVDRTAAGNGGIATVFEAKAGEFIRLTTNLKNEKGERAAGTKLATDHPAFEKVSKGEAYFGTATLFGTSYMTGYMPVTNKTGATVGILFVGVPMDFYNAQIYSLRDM

Atu0526 [2] = target: T2, Atu0526 (Agrobacterium fabrum, UniProt Q7D199, R115A); test: isothermal titration calorimetry (no significant Tm shift in thermo shift assay); format: binding
T2 construct: gene mclA; periplasmic domain (Atu0526 LBD R115A; LBD from 36th residue to 197th residue)
T2 sequence (Q7D199 entry or part of it R115A): as the sequence (Q7D199 entry or part of it) above

O=CO [formic acid]
Kd (Atu0526 [1]): 172 ± 53.6 µM | Kd (Atu0526 [2]): 22.9 ± 5.36 µM
